Results on three compounds are retold here after US12030888B2, “Himastatin derivatives, and processes of preparation thereof, and uses thereof” (priority 2021, dated 2024).

For test [1], the system named is Vancomycin-Sensitive E. faecalis (T7). The format is cell-based, Enterococcus faecalis. On the procedure: (§1) Bacillus subtilis subsp. spizizenii (ATCC 6633) and Streptomyces himastatinicus (ATCC 53653) were obtained from the American Type Culture Collection (ATCC). Methicillin-resistant and methicillin-susceptible Staphylococcus aureus (Newman), and vancomycin-resistant (V583) and vancomycin-susceptible (T7) Enterococcus faecalis were obtained from the lab of Dr. Roby P. Bhattacharyya (Massachusetts General Hospital).^6 B. subtilis was grown in brain-heart infusion (BHI) medium at 37° C., S. himastatinicus was grown in tryptone-yeast extract broth (ISP medium 2) at 28° C., E. faecalis was grown in Todd-Hewitt broth, and all other organisms were grown in lysogeny broth (LB) medium at 37° C.
(§2) Minimum inhibitory concentration (MIC) was determined using the broth microdilution method. 20-fold stocks of compound in DMSO were diluted 10-fold in MHB medium and 100 μL of each were added to the first well of a 96-well plate. 50 μL of the first well was then serially diluted through 50 μL MHB medium in wells 2-11. To prepare the bacterial culture, an overnight culture was diluted in MHB until the turbidity matched that of McFarland standard 0.5. Then, the culture was diluted 1:100 and added to wells 1-11, resulting in 2-fold dilutions of antibiotic beginning at 64 μg/mL and a final inoculum of 5×10^5 cfu/mL. 100 μL of MHB medium was added to well 12 as a sterility control, and a row containing no antibiotic was used as a growth control. The plate was incubated at the organism's respective growth temperature overnight (B. subtilis) or 72 h (S. himastatinicus) and the MIC was determined using OD600.
(§3) Minimum inhibitory concentration (MIC) was determined using the broth microdilution method.^7 20-fold (1.28 mg/mL) stocks of compound in dimethylsulfoxide, stored as frozen (−80° C.) 30-μL aliquots, were diluted 10-fold in Mueller Hinton broth (MHB) and a 100-μL sample of each was added to the first well of a 96-well plate. A 50-μL sample of the first well was then serially diluted two-fold through 50-μL NMB medium in wells 2-11. A bacterial culture was prepared from a frozen (−80° C.) stock in the organism's respective growth medium and grown overnight. The culture was then diluted in MHB until the turbidity matched that of McFarland standard 0.5 by measuring the optical density at 600 nm (1×10^8 cfu/mL). Then, the culture was diluted 1:100 and a 50-μL aliquot was added to wells 1-11, resulting in 2-fold dilutions of antibiotic from 64 μg/mL down to 0.0625 μg/mL and a final inoculum of 5×10^5 cfu/mL. A 100-μL aliquot of MHB medium was added to well 12 as a sterility control, and a row containing no antibiotic was used as a growth control. The plate was incubated at the organism's respective growth temperature overnight or 72 h (S. himastatinicus). The MIC was determined by observing the well density by eye and, with the exception of S. himastatinicus which grows in solid colonies in media, was confirmed by measuring the optical density of each well at 600 nm. At least two assays were conducted for each organism on identical lots of compound. No degradation of compound stocks in dimethylsulfoxide was observed by LC-MS analysis after being subjected to multiple freeze-thaw cycles.

Test [2] relates to Methicillin-Sensitive S. aureus (Newman). Format: cell-based, Staphylococcus aureus. The protocol: as §1, §2, §3
The subject of test [3] is Methicillin-Resistant Staphylococcus aureus. The format is cell-based. The protocol:
as §1, §2, §3

Test [4] has as its system Streptomyces himastatinicus (ATCC 53653). The format is cell-based. On the procedure:
as §1, §2, §3

In test [5] the test system is Vancomycin-Resistant Enterococcus faecalis (V583). Format: cell-based. The protocol: as §1, §2, §3
In test [6] the test system is Bacillus subtilis (ATCC 6633). The format is cell-based. On the procedure: as §1, §2, §3
The next test relates to B. subtilis (ATCC 6633). The experiment in a line: Microscopy of membrane morphology at sub-lethal concentration, FM 4-64 stain. To be noted: sub-lethal concentration 0.25 μg/mL, 3 h at 37 °C. The format is cell-based, Bacillus subtilis. On the procedure: B. subtilis (ATCC 6633) was used for all microscopy experiments. For time-course studies at lethal concentration, culture containing 1 μg/mL FM 4-64 was combined with medium containing himastatin before being immediately added to a 1% agarose pad containing 0.5 μg/mL sytox green (Invitrogen). One section of the agarose pad was then imaged every 5 minutes to monitor cell death. For studies of morphological changes in sub-lethal concentrations, culture was incubated with 0.25 μg/mL (−) or (+)-himastatin for 3 h at 37 C, before being combined with FM 4-64 and added to an agarose pad containing sytox green. Images were collected on a Zeiss AxioPlan2 upright microscope using phase-contrast and equipped with a Hamamatsu Orca-ER cooled CCD camera using standard filter sets for GFP (to visualize SYTOX green; excitation 470/40 nm and emission 525/50 nm), TxRED (to visualize FM 4-64; excitation 565/40 and emission 620/60 nm), and DIC (for phase-contrast). Additional imaged were collected with an RPI Spinning Disk Confocal microscope equipped with a Hamamatsu Orca-ER cooled CCD camera using standard filter sets for GFP (488 nm laser, emission 525/50 nm), RFP (561 nm laser, emission 605/70 nm), and brightfield.
B. subtilis (ATCC 6633) in Mueller Hinton broth (NMB) was used for all microscopy experiments. For time-course studies with natural himastatin at lethal concentration, a bacterial culture matching the optical density of McFarland standard 0.5 (1×10^8 cfu/mL) was supplemented with 1 μg/mL FM 4-64 before being combined with medium containing (−)- or (+)-himastatin (1) (2 μg/mL) immediately before imaging on a 1% agarose pad containing 0.5 μg/mL SYTOX Green (Invitrogen). One section of the agarose pad was then imaged every 5 min to monitor cell death. For studies of morphological changes in bacteria treated with sub-lethal concentrations, culture was incubated with 0.25 μg/mL (−)- or (+)-himastatin (1) for 3 h at 37° C., before being supplemented with 1 μg/mL FM 4-64 and added immediately to an agarose pad. […]

A further test relates to Gram-positive bacteria. The format is cell-based. As to conditions: for antibiotic activity (in words): relative to (−)-himastatin (1) where a derivative. On the procedure:
as §1, §2, §3

The conditions of test [7]: early investigation (ref. vii); cited from earlier work.

Structures are written as SMILES. Values after ≈ are worked out from the molar mass of the structure shown. Read-outs that look alike come from different tables or passages of the source.

Regarding `CC(C)C[C@H]1NC(=O)[C@@H]2C[C@H](O)CNN2C(=O)[C@@H](C(C)C)OC(=O)[C@H](C(C)C)NC(=O)[C@H]2C[C@]3(O)c4cc(-c5ccc6c(c5)[C@@]5(O)C[C@@H]7C(=O)N[C@@H](C(C)C)C(=O)O[C@H](C(C)C)C(=O)N8NC[C@@H](O)C[C@H]8C(=O)N[C@H](CC(C)C)C(=O)N[C@@H]([C@@H](C)O)C(=O)N7[C@H]5N6)ccc4N[C@@H]3N2C(=O)[C@H]([C@@H](C)O)NC1=O` [(+)-1, Ent-Himastatin], in [1] (broth microdilution, Vancomycin-Sensitive E. faecalis (T7), n ≥ 2), the “MIC (μg/mL) VSE faecalis” value turned out to be 1 µg/mL (≈ 0.673 µM). Further, in test [2] (broth microdilution, Methicillin-Sensitive S. aureus (Newman), n ≥ 2), the “MIC (μg/mL) MSSA” value was found to be 2 µg/mL (≈ 1.35 µM). In [3] (broth microdilution, Methicillin-Resistant Staphylococcus aureus, n ≥ 2), the “MIC (μg/mL) MRSA” value is 4 µg/mL (≈ 2.69 µM). For the same compound, in test [4], the “activity against the producing organism Streptomyces himastatinicus (in words)” value is “completely evade its own resistance mechanism and inhibit its growth”. In [4] (broth microdilution, Streptomyces himastatinicus (ATCC 53653), 72 h, n ≥ 2), the “MIC (μg/mL) S. himastatinicus” value is 0.5 µg/mL (≈ 0.337 µM). In test [4] (relative to (−)-himastatin (1)), the “fold more active in inhibiting the growth of Streptomyces himastatinicus compared to (−)-himastatin (1)” value is recorded as 4-8 fold. Besides, the “MIC (μg/mL) VRE faecalis” value in test [5] (broth microdilution, Vancomycin-Resistant Enterococcus faecalis (V583), n ≥ 2) amounted to 2 µg/mL (≈ 1.35 µM). Also, the “MIC (μg/mL) B. subtilis” value in test [6] (broth microdilution, Bacillus subtilis (ATCC 6633), growth inhibition determined by eye, n ≥ 2) is 0.5 µg/mL (≈ 0.337 µM). Moreover, the “membrane morphology (FM 4-64)” value in the test with B. subtilis (ATCC 6633) (listed as (+)-ent-himastatin) is on record as “identical”; in the test with B. subtilis (ATCC 6633) (listed as ent-(+)-himastatin), “visual membrane defects”.

For `CC(C)C[C@@H]1NC(=O)[C@H]2C[C@@H](O)CNN2C(=O)[C@H](C(C)C)OC(=O)[C@@H](C(C)C)NC(=O)[C@@H]2C[C@@]3(O)c4cc(-c5ccc6c(c5)[C@]5(O)C[C@H]7C(=O)N[C@H](C(C)C)C(=O)O[C@@H](C(C)C)C(=O)N8NC[C@H](O)C[C@@H]8C(=O)N[C@@H](CC(C)C)C(=O)N[C@H]([C@H](C)O)C(=O)N7[C@@H]5N6)ccc4N[C@H]3N2C(=O)[C@@H]([C@H](C)O)NC1=O` [(−)-1, (−)-Himastatin, reference compound], in the test on Gram-positive bacteria, the MIC values is 1 to 2 µg/mL and the “antibiotic activity (in words)” value is “potent antibiotic activity”. For the same compound, the “MIC in Bacillus subtilis” value in [6] (text and figure legend) turned out to be 1 µg/mL (≈ 0.673 µM). The “membrane morphology (FM 4-64)” value in the test on B. subtilis (ATCC 6633) is “visual membrane defects”. Moreover, the “antibiotic activity in the presence of sodium salts of phospholipids and fatty acids” value in test [7] is recorded as “reduced”.

`CC(C)[C@@H]1OC(=O)[C@@H](C(C)C)NC(=O)[C@@H]2C[C@@]3(O)c4cc(-c5ccc6c(c5)[C@]5(O)C[C@H]7C(=O)N[C@H](C(C)C)C(=O)O[C@@H](C(C)C)C(=O)N8NC[C@H](O)C[C@@H]8C(=O)N[C@@H](CCCCN=[N+]=[N-])C(=O)N[C@H]([C@H](C)O)C(=O)N7[C@@H]5N6)ccc4N[C@H]3N2C(=O)[C@@H]([C@H](C)O)NC(=O)[C@H](CCCCN=[N+]=[N-])NC(=O)[C@H]2C[C@@H](O)CNN2C1=O` [(−)-32, Himastatin ε-Azidolysine Derivative]: the “MIC (μg/mL) VSE faecalis” value in [1] (Vancomycin-Sensitive (T7)) amounted to 0.5 µg/mL (≈ 0.319 µM). Also, in [2] (Newman), the “MIC (μg/mL) MSSA” value came to 1 µg/mL (≈ 0.638 µM). For the same compound, the “MIC (μg/mL) MRSA” value in test [3] (Methicillin-Resistant) came out at 2 µg/mL (≈ 1.28 µM). Further, the “MIC (μg/mL) S. himastatinicus” value in test [4] (ATCC 53653, 72 h) turned out to be 8 µg/mL (≈ 5.1 µM). For the same compound, the “antibiotic activity (in words)” value in the test on Gram-positive bacteria was “essentially no impact on the antibiotic activity”. Also, the “MIC (μg/mL) VRE faecalis” value in [5] (Vancomycin-Resistant (V583)) is 1 µg/mL (≈ 0.638 µM). In addition, the “MIC (μg/mL) B. subtilis” value in test [6] (ATCC 6633) was found to be 2 µg/mL (≈ 1.28 µM).
